Assay results reported in article PMC9105976, “A Novel β-Hairpin Peptide Z-d14CFR Enhances Multidrug-Resistant Bacterial Clearance in a Murine Model of Mastitis” (International Journal of Molecular Sciences, 2022).
In brackets after ≈: the same amount, converted by molar mass. Like-named read-outs stand apart in the source and are kept apart here. Positions of bridges follow the written chain, without caps; N, C: chain ends. Residues, ends and D or L forms follow the SMILES beside them.

What was measured:
[1] = system: Bacillus cereus CAU 202020; experiment: MIC/MBC, microdilution broth method; format: cell-based; details: for MIC: Bacillus cereus, CAU202020, 18 h, read-out: MIC; for MBC: CAU202020, Bacillus cereus CAU 202020 (MDR isolate), kills 99.9% bacteria, NA = no activity at 1 mg/mL, read-out: MBC
Experimental: (§1) The MIC of peptides against bacteria was carried out by the microdilution broth method. The bacterial culture (OD 600 = 0.6) was diluted in 10 mM PBS to 1 × 10^6 CFU/mL. The bacterial suspension (100 μL) was added to 96-well plates, and the same volume of peptides, ampicillin or gentamicin (concentrations ranging from 0.001 to 2 mg/mL) were then added to the same 96-well plates, respectively.

[2] = system: Escherichia coli ATCC25922; experiment: MIC/MBC, microdilution broth method; format: cell-based; details: for MBC: Escherichia coli ATCC25922, minimum concentration which kills 99.9% bacteria, NA = no activity at 1 mg/mL, read-out: MBC; for MIC: Escherichia coli, ATCC25922, 18 h, read-out: MIC
Experimental: as §1

[3] = system: Escherichia coli CAU 201919; experiment: MIC/MBC, microdilution broth method; format: cell-based; details: for MBC: CAU201919, Escherichia coli CAU 201919 (MDR isolate), kills 99.9% bacteria, NA = no activity at 1 mg/mL, read-out: MBC; for MIC: Escherichia coli, CAU201919, 18 h, read-out: MIC
Experimental: as §1

[4] = system: Escherichia coli CAU 201920; experiment: MIC/MBC, microdilution broth method; format: cell-based; details: for MBC: CAU201920, Escherichia coli CAU 201920 (MDR isolate), kills 99.9% bacteria, NA = no activity at 1 mg/mL, read-out: MBC; for MIC: Escherichia coli, CAU201920, 18 h, read-out: MIC
Experimental: as §1

[5] = system: Escherichia coli CVCC1450; experiment: MIC/MBC, microdilution broth method; format: cell-based; details: for MBC: Escherichia coli CVCC1450, minimum concentration which kills 99.9% bacteria, NA = no activity at 1 mg/mL, read-out: MBC; for MIC: Escherichia coli, CVCC1450, 18 h, read-out: MIC
Experimental: as §1

[6] = system: Klebsiella pneumoniae CAU202084; experiment: MIC/MBC, microdilution broth method; format: cell-based; details: for MBC: kills 99.9% bacteria, NA = no activity at 1 mg/mL
Experimental: as §1

[7] = system: Proteus vulgaris CVCC1971; experiment: MIC/MBC, microdilution broth method; format: cell-based; details: for MBC: kills 99.9% bacteria, NA = no activity at 1 mg/mL
Experimental: as §1

[8] = system: Salmonella typhimurium ATCC14028; experiment: MIC/MBC, microdilution broth method; format: cell-based; details: Salmonella enterica; for MIC: 18 h, read-out: MIC; for MBC: Salmonella typhimurium ATCC14028, kills 99.9% bacteria, NA = no activity at 1 mg/mL, read-out: MBC
Experimental: as §1

[9] = system: Staphylococcus aureus ATCC29213; experiment: MIC/MBC, microdilution broth method; format: cell-based; details: for MBC: Staphylococcus aureus ATCC29213, kills 99.9% bacteria, NA = no activity at 1 mg/mL, read-out: MBC; for MIC: Staphylococcus aureus, ATCC29213, 18 h, read-out: MIC
Experimental: as §1

[10] = system: Staphylococcus haemolyticus CAU202078; experiment: MIC/MBC, microdilution broth method; format: cell-based; details: for MBC: Staphylococcus haemolyticus CAU202078 (MDR isolate), kills 99.9% bacteria, NA = no activity at 1 mg/mL, read-out: MBC; for MIC: Staphylococcus haemolyticus, CAU202078, 18 h, read-out: MIC
Experimental: as §1

[11] = system: Streptococcus suis CVCC3307; experiment: MIC/MBC, microdilution broth method; format: cell-based; details: for MBC: kills 99.9% bacteria, NA = no activity at 1 mg/mL
Experimental: as §1

MRSA ATCC33591 = experiment: MIC/MBC, microdilution broth method; format: cell-based, S. aureus; details: for MBC: MRSA ATCC33591, kills 99.9% bacteria, NA = no activity at 1 mg/mL
Experimental: as §1

E. coli ATCC25922 = experiment: Time-killing assay; format: cell-based; details: 2 MIC, CFU counts at 0-24 h; for time to kill bacteria in the logarithmic phase: 1 × 10^6 CFU/mL
Experimental: (§2) E. coli ATCC25922 and S. aureus ATCC29213 in the mid-logarithmic phase were diluted into 1 × 10^6 CFU/mL with 10 mM PBS, and incubated with 10 μL Z-d14CFR in a final concentration of 2 MIC. At 0, 4, 8, 12, 16, 20, and 24 h, the mixture was serial diluted and spread onto LB agar plates. After 16 h of cultivation, the CFU number of bacteria was counted to evaluate the ability of peptide to kill bacteria. The bacteria treated with 10 mM PBS as a negative control, and meanwhile incubated with 2 MIC gentamicin or polymyxin B as a positive control.

S. aureus ATCC29213 = experiment: Time-killing assay; format: cell-based; details: 2 MIC, CFU counts at 0-24 h; for time to kill bacteria in the logarithmic phase: 1 × 10^6 CFU/mL
Experimental: as §2

E. coli CAU201919 = experiment: Murine model of mastitis induced by MDR E. coli; format: in vivo, mice; details: Z-d14CFR 25 μg or gentamicin 10 μg via milk duct at 3 h and 15 h, 27 h post-infection
Text: In this study, the therapeutic effects of Z-d14CFR on MDR bacterial infection in vivo was verified by a murine mastitis model. E. coli CAU201919 was used to establish the mastitis model because it is highly pathogenic compared with other bacteria and is resistant to various antibiotics, such as ampicillin, amoxicillin and cefazolin. In brief, 45 Crl:CD1 female mice at 17–18 days of gestation were purchased from Beijing Vital River Laboratory Animal Technology Co., Ltd. (Beijing, China) and kept in the Laboratory Animal Center of China Agricultural University (Beijing, China). At 72 h post-partum, the mice were randomly divided into 5 groups (n = 9 per group) and the offspring were removed 3 h before of administration. The mice were anesthetized by Zoletil 50 (55 mg/kg body weight, WK001, Virbac, France) and held under the stereoscope in a supine position. Mice in the saline group and Z-d14CFR group were intraductal inoculated with 50 μL normal saline or 50 μL Z-d14CFR (25 μg each teat) alone to the milk duct. Mice in other groups were inoculated with 25 μL (1 × 10^5 CFU) E. coli CAU201919 suspension to the milk duct, and after 3 h of E. coli challenged, mice were treated with 25 μL saline, Z-d14CFR (25 μg) or gentamicin (10 μg), respectively, via milk duct injection. Then the mice were given the same treatment after 15 h of E. coli challenged. After 27 h of E. coli challenged, all mice were euthanized. The mammary gland tissues were collected to carry out bacterial count, histopathological examination and inflammatory factors examination.

[12] = Retention time of peptide in HPLC (hydrophobicity); format: physicochemical; details: used as measure of hydrophobicity (order Z-d14CR > Z-d14CF > Z-d13 > Z-d14CFR > Z-d14C); column and gradient not given
[13] = Klebsiella pneumoniae CAU202084 (MDR isolate), read-out: MBC
[14] = Klebsiella pneumoniae, CAU202084, 18 h, read-out: MIC
[15] = Proteus vulgaris CVCC1971, read-out: MBC
[16] = Proteus vulgaris, CVCC1971, 18 h, read-out: MIC
[17] = Streptococcus suis CVCC3307, read-out: MBC
[18] = Streptococcus suis, CVCC3307, 18 h, read-out: MIC
[19] = Staphylococcus aureus, 18 h, read-out: MIC
[20] = Staphylococcus aureus, read-out: MBC

| Compound | MIC [1] | MBC [1] | MBC [2] | MIC [2] | MBC [3] | MIC [3] | MBC [4] | MIC [4] | MBC [5] | MIC [5] | MBC [6, 13] | MIC [6, 14] | MBC [7, 15] | MIC [7, 16] | MIC [8] | MBC [8] | MBC [9] | MIC [9] | MBC [10] | MIC [10] | further results |
| --- | --- | --- | --- | --- | --- | --- | --- | --- | --- | --- | --- | --- | --- | --- | --- | --- | --- | --- | --- | --- | --- |
| CC1(C)S[C@@H]2[C@H](NC(=O)[C@H](N)c3ccccc3)C(=O)N2[C@H]1C(=O)O [Ampicillin, reference compound] | > 1000 µg/mL | > 1000 µg/mL | 16 µg/mL (≈ 45.8 µM) | 4 µg/mL (≈ 11.4 µM) | > 1000 µg/mL | > 1000 µg/mL | > 1000 µg/mL | > 1000 µg/mL | 32 µg/mL (≈ 91.6 µM) | 8 µg/mL (≈ 22.9 µM) | > 1000 µg/mL | > 1000 µg/mL | > 1000 µg/mL | > 1000 µg/mL | 4 µg/mL (≈ 11.4 µM) | 8 µg/mL (≈ 22.9 µM) | 4 µg/mL (≈ 11.4 µM) | 2 µg/mL (≈ 5.72 µM) | > 1000 µg/mL | > 1000 µg/mL | MBC [11, 17]: 2 µg/mL (≈ 5.72 µM); MIC [11, 18]: 1 µg/mL (≈ 2.86 µM); MIC (MRSA ATCC33591; [19]): > 1000 µg/mL; MBC (MRSA ATCC33591; [20]): > 1000 µg/mL |
| CNC(C)C1CCC(N)C(OC2C(N)CC(N)C(OC3OCC(C)(O)C(NC)C3O)C2O)O1 (stereo not drawn) [Gentamicin, reference compound] | 4 µg/mL (≈ 8.38 µM) | 32 µg/mL (≈ 67 µM) | 4 µg/mL (≈ 8.38 µM) | 4 µg/mL (≈ 8.38 µM) | 40 µg/mL (≈ 83.8 µM) | 40 µg/mL (≈ 83.8 µM) | 80 µg/mL (≈ 168 µM) | 80 µg/mL (≈ 168 µM) | 4 µg/mL (≈ 8.38 µM) | 2 µg/mL (≈ 4.19 µM) | 4 µg/mL (≈ 8.38 µM) | 1 µg/mL (≈ 2.09 µM) | 4 µg/mL (≈ 8.38 µM) | 1 µg/mL (≈ 2.09 µM) | 2 µg/mL (≈ 4.19 µM) | 2 µg/mL (≈ 4.19 µM) | 4 µg/mL (≈ 8.38 µM) | 4 µg/mL (≈ 8.38 µM) | 4 µg/mL (≈ 8.38 µM) | 4 µg/mL (≈ 8.38 µM) | MBC [11, 17]: 8 µg/mL (≈ 16.8 µM); MIC [11, 18]: 4 µg/mL (≈ 8.38 µM); MIC (MRSA ATCC33591; [19]): 4 µg/mL (≈ 8.38 µM); MBC (MRSA ATCC33591; [20]): 16 µg/mL (≈ 33.5 µM); time to kill bacteria in the logarithmic phase (E. coli ATCC25922): ≤ 8 h; time to kill bacteria in the plateau (E. coli ATCC25922): ≤ 12 h; time to kill bacteria in the logarithmic phase (S. aureus ATCC29213): ≤ 8 h; time to kill bacteria in the plateau (S. aureus ATCC29213): ≤ 12 h; bacterial burden in the mammary gland (E. coli CAU201919; Crl:CD1 mice, 1 × 10^5 CFU E. coli CAU201919 intraductal, infected only about 3.71 × 10^9, p < 0.001): 3.13 × 10^8 CFU/g tissue; histopathologic damage of the mammary gland (acinar wall thickening, neutrophils infiltration) (E. coli CAU201919): obviously ameliorated; increase in IL-1β mRNA expression in the mammary gland (E. coli CAU201919; p < 0.001): attenuated; increase in TNF-α mRNA expression in the mammary gland (E. coli CAU201919; p < 0.001): attenuated |
| CC(C)[C@@H]1NC(=O)[C@@H]2CSSC[C@H](NC(=O)[C@H](Cc3ccc(O)cc3)NC(=O)[C@@H](NC(=O)CNC(=O)[C@@H](N)CCCNC(=N)N)CSSC[C@@H](C(=O)N[C@@H](CCCNC(=N)N)C(N)=O)NC1=O)C(=O)N[C@@H](CC(N)=O)C(=O)N[C@@H](CO)C(=O)N[C@@H](CCCCN)C(=O)N[C@@H](CO)C(=O)N[C@@H](Cc1ccccc1)C(=O)N2 [Z-d14CF] (H-RGCYCNSKSFCVCR-NH2; disulfide 3-13, 5-11; N-terminus assumed) | – | – | – | – | – | – | – | – | – | – | – | – | – | – | – | – | – | – | – | – | MIC ([6]; Klebsiella pneumoniae CAU202084 (MDR isolate), 1 × 10^6 CFU/mL, 18 h at 37 °C, NA = no antimicrobial activity at 1 mg/mL): NA (NA) (No antimicrobial activity at 1 mg/mL); MBC ([6]; Klebsiella pneumoniae CAU202084 (MDR isolate)): NA (NA) (No antimicrobial activity at 1 mg/mL); MIC ([7]; Proteus vulgaris CVCC1971, 1 × 10^6 CFU/mL, 18 h at 37 °C, NA = no antimicrobial activity at 1 mg/mL): NA (NA) (No antimicrobial activity at 1 mg/mL); MBC ([7]; Proteus vulgaris CVCC1971): NA (NA) (No antimicrobial activity at 1 mg/mL); MIC ([11]; Streptococcus suis CVCC3307, 1 × 10^6 CFU/mL, 18 h at 37 °C, NA = no antimicrobial activity at 1 mg/mL): NA (NA) (No antimicrobial activity at 1 mg/mL); MBC ([11]; Streptococcus suis CVCC3307): NA (NA) (No antimicrobial activity at 1 mg/mL); MIC (MRSA ATCC33591; MRSA (methicillin-resistant S. aureus) ATCC33591, 1 × 10^6 CFU/mL, 18 h at 37 °C, NA = no antimicrobial activity at 1 mg/mL): NA (NA) (No antimicrobial activity at 1 mg/mL); MBC (MRSA ATCC33591): NA (NA) (No antimicrobial activity at 1 mg/mL); RT, retention time of peptide in HPLC [12]: 9.538 min |
| polymyxin B | – | – | – | – | – | – | – | – | – | – | – | – | – | – | – | – | – | – | – | – | time to kill bacteria in the logarithmic phase (E. coli ATCC25922): ≤ 4 h; time to kill bacteria in the plateau (E. coli ATCC25922): ≤ 12 h; time to kill bacteria in the logarithmic phase (S. aureus ATCC29213): ≤ 4 h; time to kill bacteria in the plateau (S. aureus ATCC29213): ≤ 12 h |
